From patent US20210186970A1, “SELECTIVE CALCIUM CHANNEL ANTAGONISTS” (Northwestern University, priority 2011, published 2021)
Where two headings read alike, the source gives them in different places.

How the values were obtained:
[1] = target: T1, Cav1.3 L-type Ca channels (Rattus norvegicus, UniProt P27732); test: FLIPR Fluo-8 calcium assay, Cav1.3 channel inhibition in HEK293 cells; format: cell-based; conditions: for Selectivity: ratio of IC50 Cav1.2 to Cav1.3
T1 construct: expressed in transfected cells; host or cells: HEK293
T1 sequence (P27732 whole entry): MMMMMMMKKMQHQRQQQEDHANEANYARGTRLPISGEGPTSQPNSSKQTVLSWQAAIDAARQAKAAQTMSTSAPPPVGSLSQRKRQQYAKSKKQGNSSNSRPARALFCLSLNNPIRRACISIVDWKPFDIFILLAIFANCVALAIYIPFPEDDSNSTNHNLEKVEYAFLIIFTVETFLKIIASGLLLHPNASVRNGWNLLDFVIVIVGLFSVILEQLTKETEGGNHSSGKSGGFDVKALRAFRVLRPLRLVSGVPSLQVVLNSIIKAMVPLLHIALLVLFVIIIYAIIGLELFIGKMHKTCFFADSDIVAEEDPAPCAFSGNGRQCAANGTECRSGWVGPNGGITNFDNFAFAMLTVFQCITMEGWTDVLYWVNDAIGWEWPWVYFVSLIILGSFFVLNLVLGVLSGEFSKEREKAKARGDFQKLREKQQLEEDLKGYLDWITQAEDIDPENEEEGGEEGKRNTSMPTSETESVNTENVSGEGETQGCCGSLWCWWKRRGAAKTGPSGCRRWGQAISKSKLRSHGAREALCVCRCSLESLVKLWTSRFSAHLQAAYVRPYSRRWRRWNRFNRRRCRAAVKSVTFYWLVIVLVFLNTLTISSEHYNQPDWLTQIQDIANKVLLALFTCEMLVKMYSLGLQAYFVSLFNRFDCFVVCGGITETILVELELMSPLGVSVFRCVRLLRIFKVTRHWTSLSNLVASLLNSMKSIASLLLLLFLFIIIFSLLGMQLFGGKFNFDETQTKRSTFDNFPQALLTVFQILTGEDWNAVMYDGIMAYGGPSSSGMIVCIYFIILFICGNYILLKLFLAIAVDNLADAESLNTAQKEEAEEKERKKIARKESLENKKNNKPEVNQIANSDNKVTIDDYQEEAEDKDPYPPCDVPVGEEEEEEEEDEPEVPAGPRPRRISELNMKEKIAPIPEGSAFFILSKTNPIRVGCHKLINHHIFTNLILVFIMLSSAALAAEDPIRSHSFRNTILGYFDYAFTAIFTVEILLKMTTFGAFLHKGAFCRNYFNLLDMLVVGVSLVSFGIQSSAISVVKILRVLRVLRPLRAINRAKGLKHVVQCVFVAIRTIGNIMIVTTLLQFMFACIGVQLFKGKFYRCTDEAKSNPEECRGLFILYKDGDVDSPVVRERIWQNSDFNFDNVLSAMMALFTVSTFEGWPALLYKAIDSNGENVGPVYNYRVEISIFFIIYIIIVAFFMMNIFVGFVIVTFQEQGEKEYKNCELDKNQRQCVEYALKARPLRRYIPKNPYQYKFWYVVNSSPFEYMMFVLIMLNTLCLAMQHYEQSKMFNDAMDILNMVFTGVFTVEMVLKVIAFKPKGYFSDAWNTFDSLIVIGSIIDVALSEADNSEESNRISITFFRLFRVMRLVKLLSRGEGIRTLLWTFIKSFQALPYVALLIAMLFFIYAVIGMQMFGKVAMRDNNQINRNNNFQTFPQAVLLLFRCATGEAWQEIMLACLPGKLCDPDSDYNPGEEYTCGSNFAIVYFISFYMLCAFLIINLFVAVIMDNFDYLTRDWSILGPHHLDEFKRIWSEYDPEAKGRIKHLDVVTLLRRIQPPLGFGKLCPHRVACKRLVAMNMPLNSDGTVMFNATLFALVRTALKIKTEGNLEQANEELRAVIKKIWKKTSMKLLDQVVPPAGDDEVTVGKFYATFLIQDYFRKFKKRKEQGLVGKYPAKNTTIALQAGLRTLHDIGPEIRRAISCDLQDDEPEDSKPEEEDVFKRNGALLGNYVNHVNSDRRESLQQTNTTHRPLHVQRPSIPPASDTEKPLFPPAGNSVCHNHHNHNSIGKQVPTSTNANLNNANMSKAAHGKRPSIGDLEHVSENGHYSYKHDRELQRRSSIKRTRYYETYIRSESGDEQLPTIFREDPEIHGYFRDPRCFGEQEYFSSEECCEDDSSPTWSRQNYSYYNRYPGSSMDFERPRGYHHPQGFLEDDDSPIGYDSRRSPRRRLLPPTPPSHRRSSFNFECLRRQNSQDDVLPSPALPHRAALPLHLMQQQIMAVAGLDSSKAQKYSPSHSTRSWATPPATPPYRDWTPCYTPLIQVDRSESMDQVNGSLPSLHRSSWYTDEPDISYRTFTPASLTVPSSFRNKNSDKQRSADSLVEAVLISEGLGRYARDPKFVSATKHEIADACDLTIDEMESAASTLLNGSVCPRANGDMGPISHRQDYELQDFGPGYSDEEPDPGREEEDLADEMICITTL
T1 sequence (P54284 whole entry partner): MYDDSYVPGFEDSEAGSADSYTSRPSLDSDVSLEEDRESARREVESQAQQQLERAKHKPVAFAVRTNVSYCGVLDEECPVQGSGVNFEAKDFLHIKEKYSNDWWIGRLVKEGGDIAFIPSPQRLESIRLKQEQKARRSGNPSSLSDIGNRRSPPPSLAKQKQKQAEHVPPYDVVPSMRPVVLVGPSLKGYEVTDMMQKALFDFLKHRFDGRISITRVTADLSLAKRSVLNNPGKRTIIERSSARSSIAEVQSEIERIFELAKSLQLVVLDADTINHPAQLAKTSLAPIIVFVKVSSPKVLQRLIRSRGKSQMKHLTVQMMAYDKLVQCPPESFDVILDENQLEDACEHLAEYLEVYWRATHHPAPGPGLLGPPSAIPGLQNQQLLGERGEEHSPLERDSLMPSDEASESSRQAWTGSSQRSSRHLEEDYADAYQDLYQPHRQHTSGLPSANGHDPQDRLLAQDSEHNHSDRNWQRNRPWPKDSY
T1 sequence (P54289 25-956 partner limits assumed): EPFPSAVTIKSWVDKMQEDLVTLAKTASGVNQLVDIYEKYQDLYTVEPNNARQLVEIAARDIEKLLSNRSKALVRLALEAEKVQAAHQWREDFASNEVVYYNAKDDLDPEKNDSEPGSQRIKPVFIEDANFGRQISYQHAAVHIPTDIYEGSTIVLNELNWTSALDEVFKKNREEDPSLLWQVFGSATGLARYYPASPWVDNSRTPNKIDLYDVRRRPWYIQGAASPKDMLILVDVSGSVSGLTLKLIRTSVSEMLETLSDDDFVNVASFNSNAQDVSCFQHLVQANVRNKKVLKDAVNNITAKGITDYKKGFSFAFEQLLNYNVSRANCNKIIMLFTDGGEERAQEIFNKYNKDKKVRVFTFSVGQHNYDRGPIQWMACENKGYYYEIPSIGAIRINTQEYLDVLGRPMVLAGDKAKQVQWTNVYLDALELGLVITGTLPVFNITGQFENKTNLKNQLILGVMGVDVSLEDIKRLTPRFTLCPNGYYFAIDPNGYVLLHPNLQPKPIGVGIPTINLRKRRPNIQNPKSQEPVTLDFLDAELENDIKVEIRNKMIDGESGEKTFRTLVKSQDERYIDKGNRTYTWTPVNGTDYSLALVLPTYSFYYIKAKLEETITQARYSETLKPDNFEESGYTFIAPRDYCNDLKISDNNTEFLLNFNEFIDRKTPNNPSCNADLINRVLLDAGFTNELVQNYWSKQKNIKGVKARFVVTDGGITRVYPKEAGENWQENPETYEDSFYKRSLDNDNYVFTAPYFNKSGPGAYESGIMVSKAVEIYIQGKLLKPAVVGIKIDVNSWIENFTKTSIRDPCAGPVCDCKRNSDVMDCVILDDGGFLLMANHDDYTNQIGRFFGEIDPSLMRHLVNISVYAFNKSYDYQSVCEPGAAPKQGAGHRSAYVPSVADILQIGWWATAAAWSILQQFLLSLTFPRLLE
T1 sequence (P54289 957-1103 partner limits assumed): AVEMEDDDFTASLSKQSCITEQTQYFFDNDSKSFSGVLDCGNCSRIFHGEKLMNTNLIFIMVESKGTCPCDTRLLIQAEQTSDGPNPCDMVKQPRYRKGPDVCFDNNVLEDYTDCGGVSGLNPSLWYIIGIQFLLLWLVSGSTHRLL

[2] = target: Cav1.2 L-type Ca channels (Oryctolagus cuniculus, UniProt P15381); test: FLIPR Fluo-8 calcium assay, Cav1.2 channel inhibition in HEK293 cells
[3] = Table 4, 12 concentration points (0.1 nM~100 μM) in duplicate, read-out: IC50 (μM) Cav1.3
[4] = third library, FLIPR, HEK293, value (±SD), read-out: IC50 (μM) Cav1.3
[5] = IC50 (μM) Cav1.2, Table 4, 12 concentration points (0.1 nM~100 μM) in duplicate
[6] = IC50 (μM) Cav1.2, third library, FLIPR, HEK293, value (±SD)
[7] = IC50 (μM) Cav1.3, third library, FLIPR, HEK293, value (±SD)
[8] = IC50 (μM) CaV1.3, first library, FLIPR, HEK293, value (±SD)
[9] = IC50 (μM) CaV1.2, first library, FLIPR, HEK293, value (±SD)

SMILES: O=C1CC(=O)N([C@@H]2C[C@@H]3CC[C@H]2C3)C(=O)N1CCc1cccc(Cl)c1 (racemic) [Compound 9, N-(3-chlorophenethyl)-N′-(+)-endo-norbornyl-pyrimidine-2,4,6-(1H,3H,5H)-trione]
- IC50 [1, 3]: 0.8 µM
- IC50 ([1]; read-out: IC50 with Cav1.3): 0.8 µM
- IC50 [1, 4]: 0.8 µM
- IC50 [2, 5]: 20.1 µM
- IC50 [2, 6]: 20.1 µM

SMILES: O=C1CC(=O)N(C2CC3CCC2C3)C(=O)N1CCc1ccc(Cl)cc1 (racemic) [Compound 10, N-(4-chlorophenethyl)-N′-(+)-endo-norbornyl-pyrimidine-2,4,6-(1H,3H,5H)-trione]
- IC50 [1, 3]: 0.6 µM
- IC50 ([1]; read-out: IC50 with Cav1.3): 0.6 µM
- IC50 [1, 4]: 0.6 µM
- IC50 [2, 5]: 13.5 µM
- IC50 [2, 6]: 13.5 µM

SMILES: CC(Cc1ccccc1)N1C(=O)CC(=O)N(C2CCCC2)C1=O (racemic) [Compound 95]
- IC50 [1, 7]: 0.7 µM
- Selectivity ([1]; third library): 23.0
- IC50 [2, 6]: 16 µM

SMILES: CC(CN1C(=O)CC(=O)N(C2CCCC2)C1=O)c1ccccc1 (racemic) [Compound 96]
- IC50 [1, 7]: 1 µM
- Selectivity ([1]; third library): 17.6
- IC50 [2, 6]: 16.9 µM

SMILES: O=C1CC(=O)N([C@H]2C[C@@H]3CC[C@H]2C3)C(=O)N1CCc1cccc(Cl)c1 (racemic) [Compound 112]
- IC50 [1, 4]: 1.9 µM
- IC50 [2, 6]: 6.3 µM

SMILES: O=C1CC(=O)N(CCc2ccc(Cl)cc2)C(=O)N1CCc1ccc(Cl)cc1 [Compound 11]
- IC50 [1, 8]: 1.8 µM
- Selectivity ([1]; first library): 1.2
- IC50 [2, 9]: 2.1 µM

SMILES: O=C1CC(=O)N(CCc2cccc(Cl)c2)C(=O)N1CCc1ccc(Cl)cc1 [Compound 12]
- IC50 [1, 8]: 1.9 µM
- Selectivity ([1]; first library): 2.3
- IC50 [2, 9]: 4.4 µM

SMILES: O=C1CC(=O)N(CCc2ccc(Cl)cc2Cl)C(=O)N1CCc1ccc(Cl)cc1 [Compound 13]
- IC50 [1, 8]: 1.8 µM
- Selectivity ([1]; first library): 1.5
- IC50 [2, 9]: 2.8 µM

SMILES: O=C1CC(=O)N(CCc2ccc(Cl)c(Cl)c2)C(=O)N1CCc1ccc(Cl)cc1 [Compound 14]
- IC50 [1, 8]: 1.9 µM
- Selectivity ([1]; first library): 0.7
- IC50 [2, 9]: 1.3 µM

SMILES: O=C1CC(=O)N(CCc2c(Cl)cccc2Cl)C(=O)N1CCc1ccc(Cl)cc1 [Compound 15]
- IC50 [1, 8]: 2.7 µM
- Selectivity ([1]; first library): 0.7
- IC50 [2, 9]: 1.9 µM

SMILES: O=C1CC(=O)N(CCc2ccc(Br)cc2)C(=O)N1CCc1ccc(Cl)cc1 [Compound 16]
- IC50 [1, 8]: 1.6 µM
- Selectivity ([1]; first library): 1.3
- IC50 [2, 9]: 2.1 µM

SMILES: Cc1ccc(CCN2C(=O)CC(=O)N(CCc3ccc(Cl)cc3)C2=O)cc1 [Compound 17]
- IC50 [1, 8]: 1.1 µM
- Selectivity ([1]; first library): 6.7
- IC50 [2, 9]: 7.1 µM

SMILES: O=C1CC(=O)N(CCc2ccc(Cl)cc2)C(=O)N1CCc1ccc(F)cc1 [Compound 18]
- IC50 [1, 8]: 1.1 µM
- Selectivity ([1]; first library): 3.1
- IC50 [2, 9]: 3.3 µM

SMILES: O=C1CC(=O)N(CCc2cccc(F)c2)C(=O)N1CCc1ccc(Cl)cc1 [Compound 19]
- IC50 [1, 8]: 1.9 µM
- Selectivity ([1]; first library): 1.5
- IC50 [2, 9]: 2.8 µM

SMILES: O=C1CC(=O)N(CCc2cccc(C(F)(F)F)c2)C(=O)N1CCc1ccc(Cl)cc1 [Compound 20]
- IC50 [1, 8]: 0.4 µM
- Selectivity ([1]; first library): 6.2
- IC50 [2, 9]: 2.8 µM

SMILES: CC(CN1C(=O)CC(=O)N(CCc2ccc(Cl)cc2)C1=O)c1ccccc1 (stereo not drawn) [Compound 21]
- IC50 [1, 8]: 1.3 µM
- Selectivity ([1]; first library): 5.0
- IC50 [2, 9]: 6.2 µM

SMILES: O=C1CC(=O)N(Cc2cccc([N+](=O)[O-])c2)C(=O)N1CCc1ccc(Cl)cc1 [Compound 22]
- IC50 [1, 8]: 21.2 µM
- Selectivity ([1]; first library): 0.4
- IC50 [2, 9]: 9.5 µM

SMILES: O=C1CC(=O)N(CCc2ccc([N+](=O)[O-])cc2)C(=O)N1CCc1ccc(Cl)cc1 [Compound 23]
- IC50 ([1]; first library, FLIPR, HEK293, value (±SD), read-out: IC50 (μM) CaV1.3): 3.4 µM
- Selectivity ([1]; first library): 0.8
- IC50 [2]: 2.7 µM

SMILES: O=C1CC(=O)N(CCc2cccc([N+](=O)[O-])c2)C(=O)N1CCc1ccc(Cl)cc1 [Compound 24]
- IC50 [1, 8]: 2.7 µM
- Selectivity ([1]; first library): 1.0
- IC50 [2, 9]: 2.6 µM

SMILES: O=C1CC(=O)N(Cc2ccc(Cl)cc2)C(=O)N1CCc1ccc(Cl)cc1 [Compound 25]
- IC50 [1, 8]: 2.1 µM
- Selectivity ([1]; first library): 0.9
- IC50 [2, 9]: 1.9 µM

SMILES: O=C1CC(=O)N(CCc2ccc(Cl)cc2)C(=O)N1CCCCc1ccccc1 [Compound 26]
- IC50 [1, 8]: 0.9 µM
- Selectivity ([1]; first library): 0.9
- IC50 [2, 9]: 0.8 µM

SMILES: O=C1CC(=O)N(CCc2ccc(Cl)cc2)C(=O)N1CCCc1ccccc1 [Compound 27]
- IC50 [1, 8]: 1.1 µM
- Selectivity ([1]; first library): 1.9
- IC50 [2, 9]: 2.1 µM

SMILES: CCCCCCCCN1C(=O)CC(=O)N(CCc2ccc(Cl)cc2)C1=O [Compound 28]
- IC50 [1, 8]: 1.5 µM
- Selectivity ([1]; first library): 1.9
- IC50 [2, 9]: 2.8 µM

SMILES: O=C1CC(=O)N(C2CCCC2)C(=O)N1CCc1ccc(Cl)cc1 [Compound 29]
- IC50 [1, 8]: 1.4 µM
- Selectivity ([1]; first library): 16.4
- IC50 [2, 9]: 22.4 µM

SMILES: O=C1CC(=O)N(C2CCCc3ccccc32)C(=O)N1CCc1ccc(Cl)cc1 (stereo not drawn) [Compound 30]
- IC50 [1, 8]: 5.6 µM
- Selectivity ([1]; first library): 2.3
- IC50 [2, 9]: 12.8 µM

SMILES: O=C1CC(=O)N(C2Cc3ccccc3C2)C(=O)N1CCc1ccc(Cl)cc1 [Compound 31]
- IC50 [1, 8]: 1.3 µM
- Selectivity ([1]; first library): 2.2
- IC50 [2, 9]: 3 µM

SMILES: O=C1CC(=O)N(C2CCc3ccccc32)C(=O)N1CCc1ccc(Cl)cc1 (stereo not drawn) [Compound 32]
- IC50 [1, 8]: 8.4 µM
- Selectivity ([1]; first library): 1.7
- IC50 [2, 9]: 14.5 µM

SMILES: O=C1CC(=O)N(CCc2ccc3ccccc3c2)C(=O)N1CCc1ccc(Cl)cc1 [Compound 33]
- IC50 [1, 8]: 1.1 µM
- Selectivity ([1]; first library): 1.2
- IC50 [2]: 1.4 µM

SMILES: COC(=O)CN1C(=O)CC(=O)N(CCc2ccc(Cl)cc2)C1=O [Compound 34]
- IC50 [1, 8]: 108 µM

SMILES: COC(=O)[C@H](C)N1C(=O)CC(=O)N(CCc2ccc(Cl)cc2)C1=O [Compound 35]
- IC50 [1, 8]: 77.7 µM
- Selectivity ([1]; first library): 1.1
- IC50 [2, 9]: 88.2 µM

SMILES: COC(=O)[C@H](CC(C)C)N1C(=O)CC(=O)N(CCc2ccc(Cl)cc2)C1=O [Compound 36]
- IC50 [1, 8]: 20.6 µM
- Selectivity ([1]; first library): 0.8
- IC50 [2, 9]: 17.1 µM

SMILES: C=CCOC(=O)[C@H](Cc1ccccc1)N1C(=O)CC(=O)N(CCc2ccc(Cl)cc2)C1=O [Compound 37]
- IC50 [1, 8]: 9.4 µM
- Selectivity ([1]; first library): 1.0
- IC50 [2, 9]: 9.1 µM

SMILES: O=C1CC(=O)N(CCc2cccc(Cl)c2)C(=O)N1CCCCc1ccccc1 [Compound 38]
- IC50 [1, 8]: 1.3 µM
- Selectivity ([1]; first library): 4.9
- IC50 [2, 9]: 6.2 µM

SMILES: O=C1CC(=O)N(CCc2ccc(Cl)c(Cl)c2)C(=O)N1CCCCc1ccccc1 [Compound 39]
- IC50 [1, 8]: 1.3 µM
- Selectivity ([1]; first library): 2.3
- IC50 [2, 9]: 3.1 µM

SMILES: O=C1CC(=O)N(CCc2ccc(Br)cc2)C(=O)N1CCCCc1ccccc1 [Compound 40]
- IC50 [1, 8]: 1.1 µM
- Selectivity ([1]; first library): 1.9
- IC50 [2, 9]: 2 µM

SMILES: Cc1ccc(CCN2C(=O)CC(=O)N(CCCCc3ccccc3)C2=O)cc1 [Compound 41]
- IC50 [1, 8]: 1.1 µM
- Selectivity ([1]; first library): 14.1
- IC50 [2, 9]: 15.5 µM

SMILES: O=C1CC(=O)N(CCc2cccc(F)c2)C(=O)N1CCCCc1ccccc1 [Compound 42]
- IC50 [1, 8]: 1.6 µM
- Selectivity ([1]; first library): 3.3
- IC50 [2, 9]: 5.3 µM

SMILES: O=C1CC(=O)N(CCc2cccc(C(F)(F)F)c2)C(=O)N1CCCCc1ccccc1 [Compound 43]
- IC50 [1, 8]: 0.5 µM
- Selectivity ([1]; first library): 2.3
- IC50 [2, 9]: 1.1 µM

SMILES: CC(CN1C(=O)CC(=O)N(CCCCc2ccccc2)C1=O)c1ccccc1 (stereo not drawn) [Compound 44]
- IC50 [1, 8]: 2.1 µM
- Selectivity ([1]; first library): 7.7
- IC50 [2, 9]: 15.8 µM

SMILES: O=C1CC(=O)N(Cc2ccc([N+](=O)[O-])cc2)C(=O)N1CCCCc1ccccc1 [Compound 45]
- IC50 [1, 8]: 7.7 µM
- Selectivity ([1]; first library): 0.6
- IC50 [2, 9]: 4.4 µM

SMILES: O=C1CC(=O)N(CCc2ccc([N+](=O)[O-])cc2)C(=O)N1CCCCc1ccccc1 [Compound 46]
- IC50 [1, 8]: 3.5 µM
- Selectivity ([1]; first library): 1.2
- IC50 [2, 9]: 4.1 µM

SMILES: CN1C(=O)CC(=O)N(Cc2cccc([N+](=O)[O-])c2)C1=O [Compound 69]
- IC50 [2]: 167 µM

SMILES: O=C1CC(=O)N(CCc2cccc([N+](=O)[O-])c2)C(=O)N1CCc1cccc([N+](=O)[O-])c1 [Compound 70]
- IC50 [2]: 173 µM
